test system: HDQ-P1; assay: normalised response (% of control), CellTox Green; higher = less cell death (100 = DMSO, 0 = benzethonium chloride kill control); details: incubation time: 72 h
Procedure, shortened: (§1)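 Two readouts were taken after 72 h: CellTox Green fluorescence (485/520 nm) first, then CellTiter-Glo luminescence after 10 min at room temperature. Breast cancer cell lines had been seeded as 20 µl suspension into 384-well plates holding compound at 5 concentrations in 10-fold steps across a compound-specific 10,000-fold range. Each value is a normalised signal at a single concentration, with plates scaled to 0.1 % DMSO (100) and a positive kill control (0).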

| SMILES | normalised response |
| --- | --- |
| O=C(c1ccc(OCCN2CCCCC2)cc1)c1c(-c2ccc(O)cc2)sc2cc(O)ccc12 [Raloxifene] (100 nM) | 90.1% |
| CC(C)C[C@H](NC(=O)[C@H](Cc1ccccc1)NC(=O)c1cnccn1)B(O)O [Bortezomib] (10 nM) | 75.7% |
| CCOc1cc2ncc(C#N)c(Nc3ccc(OCc4ccccn4)c(Cl)c3)c2cc1NC(=O)/C=C/CN(C)C [Neratinib] (10 nM) | 98.1% |

test system: BT-474; assay: as above; details: incubation time: 72 h
Procedure, shortened: as §1

| SMILES | normalised response |
| --- | --- |
| O=C(c1ccc(OCCN2CCCCC2)cc1)c1c(-c2ccc(O)cc2)sc2cc(O)ccc12 [Raloxifene] (100 nM) | 104% |
| CC(C)C[C@H](NC(=O)[C@H](Cc1ccccc1)NC(=O)c1cnccn1)B(O)O [Bortezomib] (10 nM) | 92% |
| CCOc1cc2ncc(C#N)c(Nc3ccc(OCc4ccccn4)c(Cl)c3)c2cc1NC(=O)/C=C/CN(C)C [Neratinib] (10 nM) | 93.4% |

test system: MDA-MB-453; assay: as above; details: incubation time: 72 h
Procedure, shortened: as §1

| SMILES | normalised response |
| --- | --- |
| O=C(c1ccc(OCCN2CCCCC2)cc1)c1c(-c2ccc(O)cc2)sc2cc(O)ccc12 [Raloxifene] (100 nM) | 107% |
| CC(C)C[C@H](NC(=O)[C@H](Cc1ccccc1)NC(=O)c1cnccn1)B(O)O [Bortezomib] (10 nM) | 109% |
| CCOc1cc2ncc(C#N)c(Nc3ccc(OCc4ccccn4)c(Cl)c3)c2cc1NC(=O)/C=C/CN(C)C [Neratinib] (10 nM) | 108% |

test system: HCC1143; assay: as above; details: incubation time: 72 h
Procedure, shortened: as §1

| SMILES | normalised response |
| --- | --- |
| O=C(c1ccc(OCCN2CCCCC2)cc1)c1c(-c2ccc(O)cc2)sc2cc(O)ccc12 [Raloxifene] (100 nM) | 99.7% |
| CC(C)C[C@H](NC(=O)[C@H](Cc1ccccc1)NC(=O)c1cnccn1)B(O)O [Bortezomib] (10 nM) | 105% |
| CCOc1cc2ncc(C#N)c(Nc3ccc(OCc4ccccn4)c(Cl)c3)c2cc1NC(=O)/C=C/CN(C)C [Neratinib] (10 nM) | 103% |

test system: HCC1599; assay: as above; details: incubation time: 72 h
Procedure, shortened: as §1

| SMILES | normalised response |
| --- | --- |
| O=C(c1ccc(OCCN2CCCCC2)cc1)c1c(-c2ccc(O)cc2)sc2cc(O)ccc12 [Raloxifene] (100 nM) | 92.4% |
| CC(C)C[C@H](NC(=O)[C@H](Cc1ccccc1)NC(=O)c1cnccn1)B(O)O [Bortezomib] (10 nM) | 101% |
| CCOc1cc2ncc(C#N)c(Nc3ccc(OCc4ccccn4)c(Cl)c3)c2cc1NC(=O)/C=C/CN(C)C [Neratinib] (10 nM) | 104% |

test system: MCF-10A; assay: as above; details: incubation time: 72 h
Procedure, shortened: as §1

| SMILES | normalised response |
| --- | --- |
| O=C(c1ccc(OCCN2CCCCC2)cc1)c1c(-c2ccc(O)cc2)sc2cc(O)ccc12 [Raloxifene] (100 nM) | 93.2% |
| CC(C)C[C@H](NC(=O)[C@H](Cc1ccccc1)NC(=O)c1cnccn1)B(O)O [Bortezomib] (10 nM) | 74.6% |
| CCOc1cc2ncc(C#N)c(Nc3ccc(OCc4ccccn4)c(Cl)c3)c2cc1NC(=O)/C=C/CN(C)C [Neratinib] (10 nM) | 116% |

test system: MDA-MB-468; assay: as above; details: incubation time: 72 h
Procedure, shortened: as §1

| SMILES | normalised response |
| --- | --- |
| O=C(c1ccc(OCCN2CCCCC2)cc1)c1c(-c2ccc(O)cc2)sc2cc(O)ccc12 [Raloxifene] (100 nM) | 102% |
| CC(C)C[C@H](NC(=O)[C@H](Cc1ccccc1)NC(=O)c1cnccn1)B(O)O [Bortezomib] (10 nM) | -99.2% |
| CCOc1cc2ncc(C#N)c(Nc3ccc(OCc4ccccn4)c(Cl)c3)c2cc1NC(=O)/C=C/CN(C)C [Neratinib] (10 nM) | 126% |

test system: Hs578T; assay: as above; details: incubation time: 72 h
Procedure, shortened: as §1

| SMILES | normalised response |
| --- | --- |
| O=C(c1ccc(OCCN2CCCCC2)cc1)c1c(-c2ccc(O)cc2)sc2cc(O)ccc12 [Raloxifene] (100 nM) | 94.3% |
| CC(C)C[C@H](NC(=O)[C@H](Cc1ccccc1)NC(=O)c1cnccn1)B(O)O [Bortezomib] (10 nM) | 71% |
| CCOc1cc2ncc(C#N)c(Nc3ccc(OCc4ccccn4)c(Cl)c3)c2cc1NC(=O)/C=C/CN(C)C [Neratinib] (10 nM) | 88.5% |

test system: CAL-85-1; assay: as above; details: incubation time: 72 h
Procedure, shortened: as §1

| SMILES | normalised response |
| --- | --- |
| O=C(c1ccc(OCCN2CCCCC2)cc1)c1c(-c2ccc(O)cc2)sc2cc(O)ccc12 [Raloxifene] (100 nM) | 98.3% |
| CC(C)C[C@H](NC(=O)[C@H](Cc1ccccc1)NC(=O)c1cnccn1)B(O)O [Bortezomib] (10 nM) | 16.3% |
| CCOc1cc2ncc(C#N)c(Nc3ccc(OCc4ccccn4)c(Cl)c3)c2cc1NC(=O)/C=C/CN(C)C [Neratinib] (10 nM) | 112% |

test system: MDA-MB-231; assay: as above; details: incubation time: 72 h
Procedure, shortened: as §1

| SMILES | normalised response |
| --- | --- |
| O=C(c1ccc(OCCN2CCCCC2)cc1)c1c(-c2ccc(O)cc2)sc2cc(O)ccc12 [Raloxifene] (100 nM) | 98.8% |
| CC(C)C[C@H](NC(=O)[C@H](Cc1ccccc1)NC(=O)c1cnccn1)B(O)O [Bortezomib] (10 nM) | 70.5% |
| CCOc1cc2ncc(C#N)c(Nc3ccc(OCc4ccccn4)c(Cl)c3)c2cc1NC(=O)/C=C/CN(C)C [Neratinib] (10 nM) | 120% |

test system: BT-549; assay: as above; details: incubation time: 72 h
Procedure, shortened: as §1

| SMILES | normalised response |
| --- | --- |
| O=C(c1ccc(OCCN2CCCCC2)cc1)c1c(-c2ccc(O)cc2)sc2cc(O)ccc12 [Raloxifene] (100 nM) | 92.5% |
| CC(C)C[C@H](NC(=O)[C@H](Cc1ccccc1)NC(=O)c1cnccn1)B(O)O [Bortezomib] (10 nM) | 97.2% |
| CCOc1cc2ncc(C#N)c(Nc3ccc(OCc4ccccn4)c(Cl)c3)c2cc1NC(=O)/C=C/CN(C)C [Neratinib] (10 nM) | 111% |

test system: MDA-MB-436; assay: as above; details: incubation time: 72 h
Procedure, shortened: as §1

| SMILES | normalised response |
| --- | --- |
| O=C(c1ccc(OCCN2CCCCC2)cc1)c1c(-c2ccc(O)cc2)sc2cc(O)ccc12 [Raloxifene] (100 nM) | 107% |
| CC(C)C[C@H](NC(=O)[C@H](Cc1ccccc1)NC(=O)c1cnccn1)B(O)O [Bortezomib] (10 nM) | 72.3% |
| CCOc1cc2ncc(C#N)c(Nc3ccc(OCc4ccccn4)c(Cl)c3)c2cc1NC(=O)/C=C/CN(C)C [Neratinib] (10 nM) | 54.2% |

test system: MFM-223; assay: as above; details: incubation time: 72 h
Procedure, shortened: as §1

| SMILES | normalised response |
| --- | --- |
| O=C(c1ccc(OCCN2CCCCC2)cc1)c1c(-c2ccc(O)cc2)sc2cc(O)ccc12 [Raloxifene] (100 nM) | 91.7% |
| CC(C)C[C@H](NC(=O)[C@H](Cc1ccccc1)NC(=O)c1cnccn1)B(O)O [Bortezomib] (10 nM) | 82% |
| CCOc1cc2ncc(C#N)c(Nc3ccc(OCc4ccccn4)c(Cl)c3)c2cc1NC(=O)/C=C/CN(C)C [Neratinib] (10 nM) | 94.8% |

test system: CAL-51; assay: as above; details: incubation time: 72 h
Procedure, shortened: as §1

| SMILES | normalised response |
| --- | --- |
| O=C(c1ccc(OCCN2CCCCC2)cc1)c1c(-c2ccc(O)cc2)sc2cc(O)ccc12 [Raloxifene] (100 nM) | 97.2% |
| CC(C)C[C@H](NC(=O)[C@H](Cc1ccccc1)NC(=O)c1cnccn1)B(O)O [Bortezomib] (10 nM) | 110% |
| CCOc1cc2ncc(C#N)c(Nc3ccc(OCc4ccccn4)c(Cl)c3)c2cc1NC(=O)/C=C/CN(C)C [Neratinib] (10 nM) | 110% |

test system: HCC1937; assay: as above; details: incubation time: 72 h
Procedure, shortened: as §1

| SMILES | normalised response |
| --- | --- |
| O=C(c1ccc(OCCN2CCCCC2)cc1)c1c(-c2ccc(O)cc2)sc2cc(O)ccc12 [Raloxifene] (100 nM) | 108% |
| CC(C)C[C@H](NC(=O)[C@H](Cc1ccccc1)NC(=O)c1cnccn1)B(O)O [Bortezomib] (10 nM) | 61.9% |
| CCOc1cc2ncc(C#N)c(Nc3ccc(OCc4ccccn4)c(Cl)c3)c2cc1NC(=O)/C=C/CN(C)C [Neratinib] (10 nM) | 102% |

test system: CAL-148; assay: as above; details: incubation time: 72 h
Procedure, shortened: as §1

| SMILES | normalised response |
| --- | --- |
| O=C(c1ccc(OCCN2CCCCC2)cc1)c1c(-c2ccc(O)cc2)sc2cc(O)ccc12 [Raloxifene] (100 nM) | 101% |
| CC(C)C[C@H](NC(=O)[C@H](Cc1ccccc1)NC(=O)c1cnccn1)B(O)O [Bortezomib] (10 nM) | 87.2% |
| CCOc1cc2ncc(C#N)c(Nc3ccc(OCc4ccccn4)c(Cl)c3)c2cc1NC(=O)/C=C/CN(C)C [Neratinib] (10 nM) | 104% |

test system: DU-4475; assay: as above; details: incubation time: 72 h
Procedure, shortened: as §1

| SMILES | normalised response |
| --- | --- |
| O=C(c1ccc(OCCN2CCCCC2)cc1)c1c(-c2ccc(O)cc2)sc2cc(O)ccc12 [Raloxifene] (100 nM) | 103% |
| CC(C)C[C@H](NC(=O)[C@H](Cc1ccccc1)NC(=O)c1cnccn1)B(O)O [Bortezomib] (10 nM) | 111% |
| CCOc1cc2ncc(C#N)c(Nc3ccc(OCc4ccccn4)c(Cl)c3)c2cc1NC(=O)/C=C/CN(C)C [Neratinib] (10 nM) | 108% |

test system: CAL-120; assay: as above; details: incubation time: 72 h
Procedure, shortened: as §1

| SMILES | normalised response |
| --- | --- |
| O=C(c1ccc(OCCN2CCCCC2)cc1)c1c(-c2ccc(O)cc2)sc2cc(O)ccc12 [Raloxifene] (100 nM) | 98.8% |
| CC(C)C[C@H](NC(=O)[C@H](Cc1ccccc1)NC(=O)c1cnccn1)B(O)O [Bortezomib] (10 nM) | 88% |
| CCOc1cc2ncc(C#N)c(Nc3ccc(OCc4ccccn4)c(Cl)c3)c2cc1NC(=O)/C=C/CN(C)C [Neratinib] (10 nM) | 104% |

test system: HDQ-P1; assay: normalised response (% of control), CellTiter-Glo; higher = more viable cells (100 = DMSO, 0 = benzethonium chloride kill control); details: incubation time: 72 h
Procedure, shortened: as §1

| SMILES | normalised response |
| --- | --- |
| O=C(c1ccc(OCCN2CCCCC2)cc1)c1c(-c2ccc(O)cc2)sc2cc(O)ccc12 [Raloxifene] (100 nM) | 106% |
